Experimental data as given in US20240122816A1, “ARTICLES FOR INDIRECT TRANSFER OF COSMETIC ACTIVES TO SKIN” (SYMRISE AG, priority 2019, published 2024).

Test: Analysis of the bisabolol content on the skin (GC/MS of alcohol-pad extract) after transfer from laundered clothing article
Assay type: in vivo, human
Text: Protocol: • One cotton sock from the laundry described previously was inverted to expose the inner surface. • Left arm of a subject was washed with unfragranced soap followed by 95% alcohol wipe to remove any foreign material and soluble oils. • Rubbed previously laundered cotton sock with Symrelief onto subject's […]. Seven times on one side then 8 times on the other sock surface.
(§1) Protocol: • Applied 3 commercially available alcohol pads (which had been soaked in 95% ethanol) onto arm area. Allowed to dry completely. • The alcohol wipe pads were transferred into 1 oz glass jar and added 5 grams diethylether and allowed to extract for 2 hours. • Ether extract was concentrated to 100 μl under a nitrogen stream. • 2.5 μl was manually injected into a GC/MS equipt with a carbowax column and run with a splitless method. • Bisabolol peak was identified in the sample by the characteristic ions in the mass spectrum. • The control arm was treated in the same manner with no identified bisabolol.
Protocol: • One of a pair of cotton/poly socks from the laundry described previously was given to a test subject removed and blind codded. The sock was paired with a blind codded sock that was un-laundered. • The ventral surface of the subjects ankles were washed with unfragranced soap followed by 95% alcohol wipe to remove any foreign material and soluble oils. • The pair of socks were worn by a test subject for 8 hours in a normal use setting.
as §1, with “•” for “Protocol: •”, “12” for “3”, “bisabolol. […]” for “bisabolol.”

Measured: Bisabolol peak in skin wipe extract (GC/MS, characteristic ions)

CC(C)=CCC[C@](C)(O)C1CC=C(C)CC1 (stereo partly drawn) [Bisabolol, bisabolol]
identified: laundered cotton sock (softener with 5% Symcap G1 Bisabolol slurry) rubbed onto subject's arm, 7 and 8 times, 3 alcohol pads | laundered cotton/poly sock worn for 8 hours in normal use, 12 alcohol pads | laundered thermal shirt worn for 8 hours in normal use, upper arms, 12 alcohol pads
